Test [1] addresses SMARCA4 (Homo sapiens, UniProt P51532). Kind of test: HiBiT assay for protein degradation, Hela SMARCA4-HiBiT cells (A series). The arrangement: fuse HiBiT to the carboxy terminus of SMARCA2 (Promega CS302365) or SMARCA4 (Promega CS3023225); host or cells: HeLa (CRISPR/Cas9 HiBiT knock-in). Format: cell-based. Particulars: Hela SMARCA4-HiBiT cells, 24 hours treatment; for DC50: read-out: SMARC A4 Hela HiBit DC50. In short, it runs like this: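 HeLa cells engineered by CRISPR/Cas9 to carry a HiBiT tag fused to the C-terminus of SMARCA4 (Promega CS3023225) were grown in DMEM supplemented with FBS and penicillin-streptomycin. After compound exposure, remaining SMARCA4 protein was quantified using the Nano-Glo® HiBiT Lytic Detection Assay (Promega N3050), and curves were fitted in GraphPad Prism.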

In test [2] the target is SMARCA2 (Homo sapiens, UniProt P51531). Kind of test: HiBiT assay for protein degradation, Hela SMARCA2-HiBiT cells (A series).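 For SMARC A2 Hela HiBit Dmax (%): 24 h compound treatment.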 Format: cell-based. The arrangement: Hela cells were genetically modified via CRISPR/Cas9 to fuse HiBiT to the carboxy terminus of SMARCA2; host or cells: HeLa (CRISPR/Cas9 HiBiT knock-in). Particulars: Hela SMARCA2-HiBiT cells, 24 hours treatment; for DC50: read-out: SMARC A2 Hela HiBit DC50; for Dmax: read-out: SMARC A2 Hela HiBit Dmax (%). In short, it runs like this: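 HeLa cells engineered by CRISPR/Cas9 to carry a HiBiT tag fused to the C-terminus of SMARCA2 (Promega CS302365) were grown in DMEM supplemented with FBS and penicillin-streptomycin. After treatment, remaining SMARCA2 protein was quantified with the Nano-Glo® HiBiT Lytic Detection Assay (Promega N3050), and curves were fitted in GraphPad Prism.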
Chain of SMARCA2 (P51531 whole entry, the tested form may be a part): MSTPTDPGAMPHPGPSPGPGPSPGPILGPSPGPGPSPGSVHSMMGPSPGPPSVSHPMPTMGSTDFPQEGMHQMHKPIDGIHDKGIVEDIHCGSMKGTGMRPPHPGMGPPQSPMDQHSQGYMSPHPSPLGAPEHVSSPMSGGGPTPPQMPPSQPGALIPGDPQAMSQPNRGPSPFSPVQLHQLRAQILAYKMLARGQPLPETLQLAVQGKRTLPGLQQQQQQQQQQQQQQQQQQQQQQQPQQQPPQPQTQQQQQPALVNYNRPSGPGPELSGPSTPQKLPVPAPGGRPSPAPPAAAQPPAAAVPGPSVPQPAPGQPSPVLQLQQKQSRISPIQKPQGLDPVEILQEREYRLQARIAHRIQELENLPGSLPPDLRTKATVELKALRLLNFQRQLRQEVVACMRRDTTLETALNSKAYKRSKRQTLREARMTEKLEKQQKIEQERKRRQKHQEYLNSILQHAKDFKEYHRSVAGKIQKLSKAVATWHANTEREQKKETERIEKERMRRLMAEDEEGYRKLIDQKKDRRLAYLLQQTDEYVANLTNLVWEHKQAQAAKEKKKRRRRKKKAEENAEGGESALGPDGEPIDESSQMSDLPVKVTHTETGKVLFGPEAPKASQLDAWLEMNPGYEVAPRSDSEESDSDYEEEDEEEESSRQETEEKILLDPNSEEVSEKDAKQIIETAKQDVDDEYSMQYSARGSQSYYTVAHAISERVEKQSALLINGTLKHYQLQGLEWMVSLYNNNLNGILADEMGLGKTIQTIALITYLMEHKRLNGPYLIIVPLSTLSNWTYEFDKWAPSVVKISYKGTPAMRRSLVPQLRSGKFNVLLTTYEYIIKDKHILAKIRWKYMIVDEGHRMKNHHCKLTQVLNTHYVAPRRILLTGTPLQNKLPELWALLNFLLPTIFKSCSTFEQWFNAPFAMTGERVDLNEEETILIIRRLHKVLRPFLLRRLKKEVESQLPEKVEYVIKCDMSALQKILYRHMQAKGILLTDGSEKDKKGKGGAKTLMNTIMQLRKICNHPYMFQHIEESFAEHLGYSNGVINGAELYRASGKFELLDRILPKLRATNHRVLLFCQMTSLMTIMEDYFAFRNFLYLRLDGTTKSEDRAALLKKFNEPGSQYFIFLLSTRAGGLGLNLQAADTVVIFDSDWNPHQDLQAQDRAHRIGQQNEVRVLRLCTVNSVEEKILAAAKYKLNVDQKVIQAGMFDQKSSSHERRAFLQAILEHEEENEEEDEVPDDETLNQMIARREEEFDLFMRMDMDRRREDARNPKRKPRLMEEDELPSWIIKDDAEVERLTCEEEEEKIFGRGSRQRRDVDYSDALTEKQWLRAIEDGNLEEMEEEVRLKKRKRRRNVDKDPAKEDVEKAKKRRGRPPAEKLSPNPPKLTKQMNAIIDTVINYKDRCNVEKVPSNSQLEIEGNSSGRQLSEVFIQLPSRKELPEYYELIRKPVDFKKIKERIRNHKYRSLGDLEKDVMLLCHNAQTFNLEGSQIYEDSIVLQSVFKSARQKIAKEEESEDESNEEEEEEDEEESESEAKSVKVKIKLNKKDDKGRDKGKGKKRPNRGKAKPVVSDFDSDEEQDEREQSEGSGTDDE

Setting [3] is: read-out: SMARC A4 Hela HiBit Dmax.

Read-outs that look alike come from different tables or passages of the source.

Chain of SMARCA4 (P51532 whole entry, the tested form may be a part): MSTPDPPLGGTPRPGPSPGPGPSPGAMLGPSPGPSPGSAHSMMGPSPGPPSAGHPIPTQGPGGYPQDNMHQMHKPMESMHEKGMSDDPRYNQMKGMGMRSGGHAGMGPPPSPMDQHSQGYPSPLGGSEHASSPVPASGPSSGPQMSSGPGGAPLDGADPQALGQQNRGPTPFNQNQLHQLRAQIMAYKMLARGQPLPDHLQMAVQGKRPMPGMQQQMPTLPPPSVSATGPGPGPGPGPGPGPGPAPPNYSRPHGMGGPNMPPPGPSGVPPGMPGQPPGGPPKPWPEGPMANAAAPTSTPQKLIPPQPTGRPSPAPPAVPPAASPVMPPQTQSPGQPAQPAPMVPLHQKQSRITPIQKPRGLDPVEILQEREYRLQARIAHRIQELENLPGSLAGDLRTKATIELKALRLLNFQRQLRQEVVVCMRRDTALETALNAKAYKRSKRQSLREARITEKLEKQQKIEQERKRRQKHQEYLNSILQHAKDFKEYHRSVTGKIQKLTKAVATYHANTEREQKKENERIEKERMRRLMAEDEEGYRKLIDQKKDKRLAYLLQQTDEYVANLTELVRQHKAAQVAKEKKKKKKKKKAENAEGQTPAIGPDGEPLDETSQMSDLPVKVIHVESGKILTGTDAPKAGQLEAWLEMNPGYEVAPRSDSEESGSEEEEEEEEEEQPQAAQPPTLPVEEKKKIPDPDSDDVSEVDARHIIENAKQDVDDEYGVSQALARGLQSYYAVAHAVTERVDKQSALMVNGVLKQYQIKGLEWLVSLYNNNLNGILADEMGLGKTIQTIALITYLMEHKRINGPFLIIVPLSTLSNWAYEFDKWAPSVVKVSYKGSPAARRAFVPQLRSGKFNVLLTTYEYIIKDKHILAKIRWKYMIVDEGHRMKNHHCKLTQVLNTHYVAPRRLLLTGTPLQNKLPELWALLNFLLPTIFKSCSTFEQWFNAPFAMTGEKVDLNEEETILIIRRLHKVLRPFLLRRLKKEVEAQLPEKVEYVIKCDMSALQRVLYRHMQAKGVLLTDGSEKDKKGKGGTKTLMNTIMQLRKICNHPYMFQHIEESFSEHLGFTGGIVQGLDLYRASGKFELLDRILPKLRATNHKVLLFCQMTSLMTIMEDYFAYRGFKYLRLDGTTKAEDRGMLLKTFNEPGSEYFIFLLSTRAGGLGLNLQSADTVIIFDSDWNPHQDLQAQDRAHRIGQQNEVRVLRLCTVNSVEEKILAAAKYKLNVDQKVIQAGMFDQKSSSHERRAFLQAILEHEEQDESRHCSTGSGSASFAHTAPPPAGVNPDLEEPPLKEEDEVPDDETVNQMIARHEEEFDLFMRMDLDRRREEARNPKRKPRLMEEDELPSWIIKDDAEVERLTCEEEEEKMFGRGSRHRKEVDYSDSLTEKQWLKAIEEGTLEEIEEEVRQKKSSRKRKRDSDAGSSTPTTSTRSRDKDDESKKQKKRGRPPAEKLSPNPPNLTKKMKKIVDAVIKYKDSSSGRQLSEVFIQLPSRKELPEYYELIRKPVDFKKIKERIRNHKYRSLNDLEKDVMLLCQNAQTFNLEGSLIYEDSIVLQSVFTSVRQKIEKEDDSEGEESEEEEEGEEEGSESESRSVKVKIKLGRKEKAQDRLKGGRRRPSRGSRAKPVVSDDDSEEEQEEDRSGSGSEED

On to `Cc1ncsc1-c1ccc([C@H](CC(=O)N2CCC(c3ccc4c(c3)-n3c(nc(=O)c5c(Cl)cccc53)C43CCCCC3)CC2)NC(=O)[C@@H]2C[C@@H](O)CN2C(=O)[C@@H](n2cc(C3CC3)nn2)C(C)(C)C)cc1` [Compound A140, (2S,4R)—N—((S)-3-(4-(4′-chloro-5′-oxo-5′H-spiro[cyclohexane-1,7′-indolo[1,2-a]quinazolin]-10′-yl)piperidin-1-yl)-1-(4-(4-methylthiazol-5-yl)phenyl)-3-oxopropyl)-1-((S)-2-(4-cyclopropyl-1H-1,2,3-triazol-1-yl)-3,3-dimethylbutanoyl)-4-hydroxypyrrolidine-2-carboxamide], for which the DC50 in test [1] is more than 1000 nM; in test [2], 10 to 100 nM. Besides, the figures for the Dmax in test [1] (setting [3]) and in test [2] were less than 50% and 70 to 90%, respectively.
For `COCCOCCOCCOCCOC[C@H](NC(=O)[C@@H]1C[C@@H](O)CN1C(=O)[C@@H](n1cc([C@H]2CC[C@H](CN3CCC(c4ccc5c(c4)-n4c(nc(=O)c6c(Cl)cccc64)C5(C)C)CC3)CC2)nn1)C(C)(C)C)c1ccc(-c2scnc2C)cc1` [Compound A151, (2S,4R)-1-((S)-2-(4-((1r,4S)-4-((4-(4-chloro-7,7-dimethyl-5-oxo-5,7-dihydroindolo[1,2-a]quinazolin-10-yl)piperidin-1-yl)methyl)cyclohexyl)-1H-1,2,3-triazol-1-yl)-3,3-dimethylbutanoyl)-4-hydroxy-N—((R)-16-(4-(4-methylthiazol-5-yl)phenyl)-2,5,8,11,14-pentaoxahexadecan-16-yl)pyrrolidine-2-carboxamide] the same measures were more than 1000 nM, less than 10 nM, less than 50% and more than 90%.
Consider `Cc1ncsc1-c1ccc([C@H](C)NC(=O)[C@@H]2C[C@@H](O)CN2C(=O)[C@@H](n2cc(CCCCN3CCC(c4ccc5c(c4)C4(CCCCC4)c4nc(=O)c6c(Br)cccc6n4-5)CC3)nn2)C(C)(C)C)cc1` [Compound A56, (2S,4R)-1-((S)-2-(4-(4-(4-(4′-bromo-5′-oxo-5′H-spiro[cyclohexane-1,7′-indolo[1,2-a]quinazolin]-9′-yl)piperidin-1-yl)butyl)-1H-1,2,3-triazol-1-yl)-3,3-dimethylbutanoyl)-4-hydroxy-N—((S)-1-(4-(4-methylthiazol-5-yl)phenyl)ethyl)pyrrolidine-2-carboxamide], for which the DC50 in test [1] and in test [2] was less than 100 nM throughout. Further, the Dmax in test [1] (read-out: SMARC A4 Hela HiBit Dmax(%)) and in test [2] was more than 90% each time.
`Cc1ncsc1-c1ccc([C@H](CNC(=O)[C@H]2CC[C@H](CN3CCC(c4ccc5c(c4)C4(CCCCC4)c4nc(=O)c6c(Br)cccc6n4-5)CC3)CC2)NC(=O)[C@@H]2C[C@@H](O)CN2C(=O)[C@@H](n2cc(C3CC3)nn2)C(C)(C)C)cc1` [Compound A117, (2S,4R)—N—((R)-2-((1r,4R)-4-((4-(4′-bromo-5′-oxo-5′H-spiro[cyclohexane-1,7′-indolo[1,2-a]quinazolin]-9′-yl)piperidin-1-yl)methyl)cyclohexane-1-carboxamido)-1-(4-(4-methylthiazol-5-yl)phenyl)ethyl)-1-((S)-2-(4-cyclopropyl-1H-1,2,3-triazol-1-yl)-3,3-dimethylbutanoyl)-4-hydroxypyrrolidine-2-carboxamide]: the DC50 in test [1] and in test [2] was more than 1000 nM each time. The Dmax in test [1] (setting [3]) and in test [2] was less than 50% each time.
